Results on 79 molecules are retold here after ChEMBL document CHEMBL3352520, “CoMFA and CoMSIA analysis of ACE-inhibitory, antimicrobial and bitter-tasting peptides” (Eur J Med Chem, 2014).

Residues, ends and D or L forms follow the SMILES beside them.

The assay deals with Angiotensin-converting enzyme (Homo sapiens) (UniProt P12821). As to the kind of experiment: Inhibition of ACE (unknown origin). Details: unit not given here.
Chain of Angiotensin-converting enzyme (Homo sapiens) (P12821 whole entry): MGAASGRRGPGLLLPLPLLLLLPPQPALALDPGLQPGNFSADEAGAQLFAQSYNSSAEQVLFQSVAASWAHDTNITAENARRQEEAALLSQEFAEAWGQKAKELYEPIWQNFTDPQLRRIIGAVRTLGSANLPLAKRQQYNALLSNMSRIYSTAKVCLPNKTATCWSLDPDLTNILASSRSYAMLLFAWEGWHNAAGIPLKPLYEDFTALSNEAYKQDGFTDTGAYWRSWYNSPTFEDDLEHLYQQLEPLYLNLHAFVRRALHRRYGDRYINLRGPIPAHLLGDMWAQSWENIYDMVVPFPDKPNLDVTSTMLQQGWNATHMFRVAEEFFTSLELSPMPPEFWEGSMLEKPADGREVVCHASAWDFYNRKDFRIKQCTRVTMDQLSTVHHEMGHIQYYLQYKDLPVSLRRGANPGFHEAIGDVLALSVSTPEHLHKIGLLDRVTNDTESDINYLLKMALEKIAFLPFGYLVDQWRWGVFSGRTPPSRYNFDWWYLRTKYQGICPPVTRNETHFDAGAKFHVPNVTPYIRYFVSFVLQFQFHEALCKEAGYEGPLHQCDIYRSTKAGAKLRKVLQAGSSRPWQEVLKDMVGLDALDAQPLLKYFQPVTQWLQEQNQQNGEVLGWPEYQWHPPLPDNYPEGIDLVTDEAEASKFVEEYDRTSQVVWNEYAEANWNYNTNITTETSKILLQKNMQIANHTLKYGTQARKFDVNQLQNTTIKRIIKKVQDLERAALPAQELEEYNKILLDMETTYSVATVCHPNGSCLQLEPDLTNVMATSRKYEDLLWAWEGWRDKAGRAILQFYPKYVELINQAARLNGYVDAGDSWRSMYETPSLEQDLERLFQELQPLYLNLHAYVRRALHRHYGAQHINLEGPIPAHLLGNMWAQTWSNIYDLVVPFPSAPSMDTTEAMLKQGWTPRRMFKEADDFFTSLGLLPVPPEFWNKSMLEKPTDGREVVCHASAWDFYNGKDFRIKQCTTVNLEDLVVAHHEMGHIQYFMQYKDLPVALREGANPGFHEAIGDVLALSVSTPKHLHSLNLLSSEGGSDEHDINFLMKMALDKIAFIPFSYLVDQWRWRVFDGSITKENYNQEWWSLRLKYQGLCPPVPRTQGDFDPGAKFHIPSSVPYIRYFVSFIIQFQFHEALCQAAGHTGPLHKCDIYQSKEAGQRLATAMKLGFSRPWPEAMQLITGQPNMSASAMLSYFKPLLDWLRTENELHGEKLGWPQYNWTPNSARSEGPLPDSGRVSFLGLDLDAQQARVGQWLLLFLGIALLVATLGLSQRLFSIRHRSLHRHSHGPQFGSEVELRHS
As for `CC(C)C[C@H](N)C(=O)N[C@@H](Cc1c[nH]c2ccccc12)C(=O)O`, the logIC50 was determined as 1.24.

Turning to `CC(C)C[C@H](N)C(=O)N[C@@H](Cc1ccc(O)cc1)C(=O)O`, the logIC50 amounted to 1.51.

In turn, `CC[C@H](C)[C@H](N)C(=O)N[C@@H](Cc1c[nH]c2ccccc12)C(=O)O` gave a logIC50 of 0.67.

In the case of `C[C@H](N)C(=O)N[C@@H](Cc1ccccc1)C(=O)O`, the logIC50 was found to be 1.88.

For the molecule `NC(N)=NCCC[C@H](N)C(=O)N[C@@H](Cc1ccccc1)C(=O)O`, the logIC50 turned out to be 1.97.

For `NCCCC[C@H](N)C(=O)N[C@@H](Cc1ccccc1)C(=O)O`, the logIC50 was determined as 1.45.

Take `CC(C)[C@H](NC(=O)[C@H](C)N)C(=O)NCC(=O)N1CCC[C@H]1C(=O)O` (H-AVGP-OH): the logIC50 was 0.49.

With `CC(C)C[C@H](NC(=O)[C@H](C)N)C(=O)N1CCC[C@H]1C(=O)O` (H-Ala-Leu-Pro-OH), the logIC50 came to 2.38.

Turning to `C[C@H](N)C(=O)N[C@@H](Cc1c[nH]c2ccccc12)C(=O)O` (H-Ala-Trp-OH), the logIC50 was 1.08.

On to `C[C@H](N)C(=O)N[C@@H](Cc1ccc(O)cc1)C(=O)O` (H-Ala-Tyr-OH), for which the logIC50 worked out at 1.28.

As to `CC(C)[C@H](NC(=O)[C@H](C)N)C(=O)N1CCC[C@H]1C(=O)O` (H-Ala-Val-Pro-OH), the logIC50 stood at 2.53.

In the case of `NC(N)=NCCC[C@H](N)C(=O)N1CCC[C@H]1C(=O)O` (H-Arg-Pro-OH), the logIC50 came to 1.32.

`NC(N)=NCCC[C@H](N)C(=O)N[C@@H](Cc1c[nH]c2ccccc12)C(=O)O` (H-Arg-Trp-OH) had a logIC50 of 1.2.

`N=C(N)NCCC[C@H](N)C(=O)N[C@@H](Cc1ccc(O)cc1)C(=O)O` (H-Arg-Tyr-OH) had a logIC50 of 1.71.

In the case of `NC(=O)C[C@H](N)C(=O)N[C@@H](Cc1ccccc1)C(=O)O` (H-Asn-Phe-OH), the logIC50 came out at 1.67.

For the molecule `NC(=O)C[C@H](N)C(=O)N[C@@H](Cc1ccc(O)cc1)C(=O)O` (H-Asn-Tyr-OH), the logIC50 came out at 1.51.

As for `CC(C)C[C@H](NC(=O)[C@@H](N)CC(=O)O)C(=O)N1CCC[C@H]1C(=O)O` (H-Asp-Leu-Pro-OH), the logIC50 turned out to be 0.68.

Take `N[C@@H](CC(=O)O)C(=O)N[C@@H](Cc1ccccc1)C(=O)O` (H-Asp-Phe-OH): the logIC50 was determined as 2.56.

The molecule `N[C@@H](CC(=O)O)C(=O)N[C@@H](Cc1ccc(O)cc1)C(=O)O` (H-Asp-Tyr-OH) showed a logIC50 of 2.

`CC(C)[C@H](NC(=O)[C@@H](N)Cc1ccccc1)C(=O)N[C@@H](C)C(=O)N1CCC[C@H]1C(=O)O` (H-FVAP-OH) had a logIC50 of 1.

With `C[C@H](NC(=O)[C@H](Cc1c[nH]c2ccccc12)NC(=O)CN)C(=O)N1CCC[C@H]1C(=O)O` (H-GWAP-OH), the logIC50 amounted to 0.59.

The molecule `N=C(N)NCCC[C@H](NC(=O)CN)C(=O)N1CCC[C@H]1C(=O)O` (H-Gly-Arg-Pro-OH) came in with a logIC50 of 1.3.

`NCC(=O)N[C@@H](CCC(=O)O)C(=O)N1CCC[C@H]1C(=O)O` (H-Gly-Glu-Pro-OH): the logIC50 was found to be 2.51.

As to `NCCCC[C@H](NC(=O)CN)C(=O)N1CCC[C@H]1C(=O)O` (H-Gly-Lys-Pro-OH), the logIC50 was 2.55.

In turn, `NCC(=O)N[C@@H](Cc1ccccc1)C(=O)O` (H-Gly-Phe-OH) showed a logIC50 of 2.44.

`NCC(=O)N1CCC[C@H]1C(=O)O` (H-Gly-Pro-OH): the logIC50 is 2.56.

With `NCC(=O)N[C@@H](Cc1c[nH]c2ccccc12)C(=O)O` (H-Gly-Trp-OH), the logIC50 is 1.4.

In turn, `NCC(=O)N[C@@H](Cc1ccc(O)cc1)C(=O)O` (H-Gly-Tyr-OH) yielded a logIC50 of 2.32.

In turn, `N[C@@H](Cc1cnc[nH]1)C(=O)N[C@@H](Cc1ccc(O)cc1)C(=O)O` (H-His-Tyr-OH) gave a logIC50 of 1.42.

The molecule `CC[C@H](C)[C@H](N)C(=O)N[C@@H](CC(C)C)C(=O)N1CCC[C@H]1C(=O)N1CCC[C@H]1C(=O)O` (H-ILPP-OH) showed a logIC50 of 2.24.

Molecule `CC[C@H](C)[C@H](N)C(=O)N[C@@H](C)C(=O)N1CCC[C@H]1C(=O)O` (H-Ile-Ala-Pro-OH) yielded a logIC50 of 0.43.

The molecule `CC[C@H](C)[C@H](N)C(=O)N[C@@H](CCCNC(=N)N)C(=O)N1CCC[C@H]1C(=O)O` (H-Ile-Arg-Pro-OH) returned a logIC50 of -0.13.

Consider `CC[C@H](C)[C@H](N)C(=O)N[C@@H](CCC(=O)O)C(=O)N1CCC[C@H]1C(=O)O` (H-Ile-Glu-Pro-OH), for which the logIC50 is 0.2.

`CC[C@H](C)[C@H](N)C(=O)N[C@@H](CCCCN)C(=O)N1CCC[C@H]1C(=O)O` (H-Ile-Lys-Pro-OH) came in with a logIC50 of 0.84.

Turning to `CC[C@H](C)[C@H](N)C(=O)N1CCC[C@H]1C(=O)O` (H-Ile-Pro-OH), the logIC50 turned out to be 2.11.

In turn, `CC[C@H](C)[C@H](N)C(=O)N[C@@H](Cc1ccc(O)cc1)C(=O)O` (H-Ile-Tyr-OH) yielded a logIC50 of 0.79.

Consider `CC(C)C[C@H](N)C(=O)N[C@H](C(=O)N1CCC[C@H]1C(=O)N1CCC[C@H]1C(=O)O)C(C)C` (H-LVPP-OH), for which the logIC50 is 2.1.

Take `CC(C)C[C@H](N)C(=O)N[C@@H](C)C(=O)N1CCC[C@H]1C(=O)O` (H-Leu-Ala-Pro-OH): the logIC50 turned out to be 0.54.

Turning to `CC(C)C[C@H](N)C(=O)N[C@@H](CCCN=C(N)N)C(=O)N1CCC[C@H]1C(=O)O` (H-Leu-Arg-Pro-OH), the logIC50 was -0.57.

`CC(C)C[C@H](N)C(=O)N[C@@H](CC(N)=O)C(=O)N1CCC[C@H]1C(=O)O` (H-Leu-Asn-Pro-OH) had a logIC50 of 1.76.

`CC(C)C[C@H](N)C(=O)N[C@@H](CCC(N)=O)C(=O)N1CCC[C@H]1C(=O)O` (H-Leu-Gln-Pro-OH) showed a logIC50 of 0.28.

`CC(C)C[C@H](N)C(=O)N[C@@H](CCC(=O)O)C(=O)N1CCC[C@H]1C(=O)O` (H-Leu-Glu-Pro-OH) had a logIC50 of 0.28.

Molecule `CC(C)C[C@H](N)C(=O)N[C@@H](CCCCN)C(=O)N1CCC[C@H]1C(=O)O` (H-Leu-Lys-Pro-OH) had a logIC50 of 0.6.

In turn, `CC(C)C[C@H](N)C(=O)N[C@@H](CO)C(=O)N1CCC[C@H]1C(=O)O` (H-Leu-Ser-Pro-OH) returned a logIC50 of 0.23.

As to `CC(C)C[C@H](N)C(=O)N[C@@H](Cc1ccc(O)cc1)C(=O)N1CCC[C@H]1C(=O)O` (H-Leu-Tyr-Pro-OH), the logIC50 was determined as 0.82.

`NCCCC[C@H](N)C(=O)N1CCC[C@H]1C(=O)O` (H-Lys-Pro-OH): the logIC50 was 1.34.

In turn, `CSCC[C@H](N)C(=O)N[C@@H](CC(N)=O)C(=O)N1CCC[C@H]1C(=O)O` (H-Met-Asn-Pro-OH) showed a logIC50 of 1.82.

On to `CSCC[C@H](N)C(=O)N[C@@H](Cc1ccccc1)C(=O)O` (H-Met-Phe-OH), for which the logIC50 turned out to be 1.65.

Molecule `CSCC[C@H](N)C(=O)N[C@@H](Cc1c[nH]c2ccccc12)C(=O)O` (H-Met-Trp-OH) had a logIC50 of 1.

As for `NCCCC[C@H](NC(=O)[C@@H]1CCCN1)C(=O)N[C@@H](Cc1cnc[nH]1)C(=O)N1CCC[C@H]1C(=O)O` (H-PKHP-OH), the logIC50 turned out to be 2.85.

`C[C@H](NC(=O)[C@@H](N)Cc1ccccc1)C(=O)N1CCC[C@H]1C(=O)O` (H-Phe-Ala-Pro-OH) yielded a logIC50 of 0.58.

With `NC(=O)CC[C@H](NC(=O)[C@@H](N)Cc1ccccc1)C(=O)N1CCC[C@H]1C(=O)O` (H-Phe-Gln-Pro-OH), the logIC50 amounted to 1.08.

`N[C@@H](Cc1ccccc1)C(=O)N[C@@H](CCC(=O)O)C(=O)N1CCC[C@H]1C(=O)O` (H-Phe-Glu-Pro-OH) yielded a logIC50 of 1.08.

`N[C@@H](Cc1ccccc1)C(=O)N1CCC[C@H]1C(=O)O` (H-Phe-Pro-OH) yielded a logIC50 of 2.5.

`N[C@@H](Cc1ccccc1)C(=O)N[C@@H](Cc1ccc(O)cc1)C(=O)O` (H-Phe-Tyr-OH) gave a logIC50 of 1.4.

Take `N[C@@H](CO)C(=O)N1CCC[C@H]1C(=O)N[C@@H](Cc1ccc(O)cc1)C(=O)N1CCC[C@H]1C(=O)O` (H-SPYP-OH): the logIC50 was 2.93.

`N[C@@H](CO)C(=O)N[C@@H](Cc1ccc(O)cc1)C(=O)O` (H-Ser-Tyr-OH): the logIC50 came to 1.82.

As for `C[C@@H](O)[C@H](N)C(=O)N[C@@H](CC(N)=O)C(=O)N1CCC[C@H]1C(=O)O` (H-Thr-Asn-Pro-OH), the logIC50 is 2.32.

For the molecule `C[C@@H](O)[C@H](N)C(=O)N[C@@H](Cc1ccccc1)C(=O)O` (H-Thr-Phe-OH), the logIC50 worked out at 1.95.

The molecule `C[C@@H](O)[C@H](N)C(=O)N1CCC[C@H]1C(=O)O` (H-Thr-Pro-OH) registered a logIC50 of 2.46.

`N[C@@H](Cc1ccc(O)cc1)C(=O)N1CCC[C@H]1C(=O)O` (H-Tyr-Pro-OH): the logIC50 came out at 2.86.

For the molecule `CC(C)[C@H](N)C(=O)N[C@@H](CO)C(=O)N[C@@H](CO)C(=O)N1CCC[C@H]1C(=O)O` (H-VSSP-OH), the logIC50 was 1.

Molecule `CC(C)[C@H](N)C(=O)N[C@H](C(=O)N1CCC[C@H]1C(=O)N1CCC[C@H]1C(=O)O)C(C)C` (H-VVPP-OH) displayed a logIC50 of 2.45.

Turning to `CC(C)[C@H](N)C(=O)N[C@@H](CCCNC(=N)N)C(=O)N1CCC[C@H]1C(=O)O` (H-Val-Arg-Pro-OH), the logIC50 was 0.34.

As for `CC(C)[C@H](N)C(=O)NCC(=O)N1CCC[C@H]1C(=O)O` (H-Val-Gly-Pro-OH), the logIC50 was 1.42.

In turn, `CSCC[C@H](NC(=O)[C@@H](N)C(C)C)C(=O)N1CCC[C@H]1C(=O)O` (H-Val-Met-Pro-OH) displayed a logIC50 of 1.46.

`CC(C)[C@H](N)C(=O)N[C@@H](Cc1ccccc1)C(=O)O` (H-Val-Phe-OH): the logIC50 is 0.96.

Take `CC(C)[C@H](N)C(=O)N1CCC[C@H]1C(=O)O` (H-Val-Pro-OH): the logIC50 was determined as 2.62.

In turn, `CC(C)[C@H](N)C(=O)N[C@@H](CO)C(=O)N1CCC[C@H]1C(=O)O` (H-Val-Ser-Pro-OH) displayed a logIC50 of 1.

In turn, `CC(C)[C@H](N)C(=O)N[C@@H](Cc1ccc(O)cc1)C(=O)O` (H-Val-Tyr-OH) came in with a logIC50 of 1.2.

As to `CC(C)[C@H](N)C(=O)N[C@@H](Cc1ccc(O)cc1)C(=O)N1CCC[C@H]1C(=O)O` (H-Val-Tyr-Pro-OH), the logIC50 stood at 2.46.

With H-APVPP-OH, the logIC50 worked out at 2.8.

Consider H-AVPYP-OH, for which the logIC50 worked out at 1.9.

For H-DKIHP-OH, the logIC50 is 2.05.

H-DYGLYP-OH yielded a logIC50 of 1.79.

H-FFVAP-OH yielded a logIC50 of 0.78.

H-GRVMP-OH returned a logIC50 of 2.4.

Regarding H-HQIYP-OH, the logIC50 was found to be 2.04.

H-IAYKP-OH had a logIC50 of 0.34.
